Where only a bound is given, the exact number is not on record here.

Assay [1] addresses T1, LipT (uncultured bacterium, UniProt K7QE48).
T1 construct: full ORF of 331 residues incl. predicted signal peptide (cleavage Ala21/Val22), C-terminal His6 (pET21a), E. coli BL21(DE3), Ni-NTA; about 36 kDa monomer, multimer (at least dimer)
The assay is described as follows: spectrophotometric 4-nitrophenol release at […] nm. Type of assay: biochemical. The following applies: 75°C, 0.1 M potassium phosphate pH 8.0.

Assay [2] relates to T2, LipS-WT (uncultured bacterium).
T2 construct: crystallization construct LipS-WT with native N-terminus (disordered to about residue 35); space group P4, 4 molecules per asymmetric unit; dimer
Put plainly: X-ray crystal structure, […] Å. Particulars: active site next to S126 and H257, contact to D187; spermidine was added as crystallisation additive, residual density interpreted as spermidine; PDB code assigned by order of listing. The format is binding.

For assay [3], the target named is T3, LipS (Symbiobacterium thermophilum, UniProt Q67MR3).
T3 construct: gene STH2045; full-length, 280 residues, C-terminal His6 (pET21a), E. coli BL21(DE3), Ni-NTA; dimer by SEC
T3 sequence (Q67MR3 entry or part of it): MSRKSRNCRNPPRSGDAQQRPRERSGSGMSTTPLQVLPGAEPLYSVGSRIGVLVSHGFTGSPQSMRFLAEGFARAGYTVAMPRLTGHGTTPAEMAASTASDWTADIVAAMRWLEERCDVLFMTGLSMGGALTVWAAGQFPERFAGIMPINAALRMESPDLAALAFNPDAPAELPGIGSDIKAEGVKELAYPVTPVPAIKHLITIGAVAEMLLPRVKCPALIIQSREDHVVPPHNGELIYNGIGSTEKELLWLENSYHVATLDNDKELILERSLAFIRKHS
Put plainly: pNP-decanoate hydrolysis, spectrophotometric at […] nm. Type of assay: biochemical. Particulars: pNP-decanoate as substrate, 5 min preincubation, 70°C, 10 min.

In assay [4] the target is LipS with His6-tag at the C-terminus (LipS-H6) (metagenome-derived (100% identity to Symbiobacterium thermophilum)). The assay is described as follows: SEC; size exclusion chromatography during purification of LipS for crystallization; conditions not told (ref. 67). Background: Size exclusion chromatography separates by hydrodynamic size, large species first.
In assay [5] the target is LipT (metagenome-derived (97% identity to Thermus scotoductus)). The assay is described as follows: SDS-PAGE after incomplete heat denaturation; 15% SDS-PAGE of purified LipT after 5 min at 95°C, Coomassie staining.
In assay [6] the target is wild-type LipS (LipS-WT) (metagenome-derived (100% identity to Symbiobacterium thermophilum)). The assay is described as follows: SEC; size exclusion chromatography during purification of LipS for crystallization; conditions not told (ref. 67).

T1 sequence (K7QE48 1-328 limits assumed): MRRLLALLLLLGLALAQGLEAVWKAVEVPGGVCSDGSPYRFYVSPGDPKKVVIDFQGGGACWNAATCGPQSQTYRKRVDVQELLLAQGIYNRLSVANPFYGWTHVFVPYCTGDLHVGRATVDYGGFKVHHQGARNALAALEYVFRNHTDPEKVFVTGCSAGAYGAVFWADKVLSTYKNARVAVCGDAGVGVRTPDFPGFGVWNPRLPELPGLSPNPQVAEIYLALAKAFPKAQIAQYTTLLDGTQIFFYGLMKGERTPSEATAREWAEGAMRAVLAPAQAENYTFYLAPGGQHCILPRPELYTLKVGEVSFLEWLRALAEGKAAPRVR

`CCCCCCCCCC(=O)Oc1ccc([N+](=O)[O-])cc1` [4-nitrophenol-decanoate (C10)]: the “Km (mol l^-1)” value in assay [1] is given as 1.1 • 10^−3 mol l^−1. As for `NCCCCNCCCN` [spermidine], the “X-ray crystal structure, 1.99 Å” value in assay [2] was “Spermidine was used as an additive to improve crystal quality”. In assay [3], the “inhibition at 3 and 5 mM” value is listed as “shown to inhibit the activity of LipS with its substrate pNP-decanoate”.

For orientation: stoichiometry N means a count of units in the complex or per binding partner. For the molecule “LipS with His6-tag at the C-terminus (LipS-H6) (enzyme)”, the stoichiometry N in assay [4] came to 2. Molecule LipT (enzyme) displayed a stoichiometry N in assay [5] greater than 2. For the molecule wild-type LipS (LipS-WT) (enzyme), the stoichiometry N in assay [6] came out at 2.

These data come from paper PMC3480424, “The Metagenome-Derived Enzymes LipS and LipT Increase the Diversity of Known Lipases” (PLoS ONE, 2012).
